This series concerns CCRIS mutagenicity, Ames/micronucleus/aberration tests. The series can be described thus: CCRIS mutagenicity studies.
Setting [1] is: Test System: AMES SALMONELLA TYPHIMURIUM, Strain/Indicator: TA98, Metabolic Activation: RAT, LIVER, S-9, AROCLOR 1254, Method: STANDARD PLATE.
Setting [2] is: Test System: AMES SALMONELLA TYPHIMURIUM, Strain/Indicator: TA100, Metabolic Activation: RAT, LIVER, S-9, AROCLOR 1254, Method: STANDARD PLATE.
Where [3] appears, read: Test System: AMES SALMONELLA TYPHIMURIUM, Strain/Indicator: TA1537, Metabolic Activation: RAT, LIVER, S-9, AROCLOR 1254, Method: STANDARD PLATE.
Where [4] appears, read: Test System: AMES SALMONELLA TYPHIMURIUM, Strain/Indicator: TA98, Metabolic Activation: NONE, Method: STANDARD PLATE.
Setting [5] is: Test System: AMES SALMONELLA TYPHIMURIUM, Strain/Indicator: TA100, Metabolic Activation: NONE, Method: STANDARD PLATE.
Setting [6] is: Test System: AMES SALMONELLA TYPHIMURIUM, Strain/Indicator: TA1535, Metabolic Activation: NONE, Method: STANDARD PLATE.
Where [7] appears, read: Test System: AMES SALMONELLA TYPHIMURIUM, Strain/Indicator: TA1535, Metabolic Activation: RAT, LIVER, S-9, AROCLOR 1254, Method: STANDARD PLATE.

Molecules are shown by their SMILES. Calls of active or inactive are those of the source. No rule for the calls is given here.

Regarding `COC1C2C(=O)C34C(=O)c5c(O)cc(C)cc5C(=O)C35C3C(=O)C46C(=O)c4c(O)cc(C)cc4C(=O)C26C(C3OC)C15` (centres undefined), the mutagenic call was “inactive; negative” under setting [1], “inactive; negative” under setting [2] and “inactive; negative” under setting [3].
In the case of `Cc1cc(O)cc2oc(=O)c3c(O)cc(O)cc3c12`, the mutagenic call is “inactive; negative” under setting [4]; “inactive; negative” (Test System: AMES SALMONELLA TYPHIMURIUM, Strain/Indicator: TA98, Metabolic Activation: RAT LIVER S-9, AROCLOR 1254, Method: STANDARD PLATE); “inactive; negative” under setting [1]; “inactive; negative” under setting [5]; “inactive; negative” (Test System: AMES SALMONELLA TYPHIMURIUM, Strain/Indicator: TA100, Metabolic Activation: RAT LIVER S-9, AROCLOR 1254, Method: STANDARD PLATE); “inactive; negative” under setting [2]. Further, the mutagenic call (Test System: Ames Salmonella typhimurium, Strain/Indicator: TA97, Metabolic Activation: None, Method: Standard plate) is “inactive; negative. nitrosation did not increase mutagenic activity”; the mutagenic call (Test System: Ames Salmonella typhimurium, Strain/Indicator: TA97, Metabolic Activation: Rat, Liver, S-9, Aroclor 1254 (10%), Method: Standard plate) was “inactive; negative. nitrosation did not increase mutagenic activity”; the mutagenic call (Test System: Ames Salmonella typhimurium, Strain/Indicator: TA102, Metabolic Activation: None, Method: Standard plate) was “active; positive. nitrosation led to mutagenic product”; the mutagenic call (Test System: Ames Salmonella typhimurium, Strain/Indicator: TA102, Metabolic Activation: Rat, Liver, S-9, Aroclor 1254 (10%), Method: Standard plate) was “active; positive. nitrosation led to mutagenic product”; the mutagenic call (Test System: Ames Salmonella typhimurium, Strain/Indicator: TA104, Metabolic Activation: None, Method: Standard plate) was “inactive; negative. nitrosation did not increase mutagenic activity”; the mutagenic call (Test System: Ames Salmonella typhimurium, Strain/Indicator: TA104, Metabolic Activation: Rat, Liver, S-9, Aroclor 1254 (10%), Method: Standard plate) is “inactive; negative. nitrosation did not increase mutagenic activity”.
For the compound `O[C@H]1C=CC2=C(c3cccc4cccc2c34)[C@@H]1O`, the mutagenic call was “active; positive” (Test System: AMES SALMONELLA TYPHIMURIUM, Strain/Indicator: TM677, Metabolic Activation: NONE, Method: PREINCUBATION) and “active; positive” (Test System: AMES SALMONELLA TYPHIMURIUM, Strain/Indicator: TM677, Metabolic Activation: RAT, LIVER, POSTMITOCHONDRIAL SUPERNATANT, AROCLOR 1254, Method: PREINCUBATION).
Take `O=S(=O)(O)NO`: the mutagenic call by setting is: (Test System: AMES SALMONELLA TYPHIMURIUM, Strain/Indicator: G46, Metabolic Activation: RAT, LIVER, S-9, AROCLOR 1254, Method: STANDARD PLATE) “inactive; negative”; under setting [2], “inactive; negative”.
On to `ClC1C=Cc2cc3c4c(ccc5cccc(c54)C=3)c2=C1` (centres undefined), for which, under “Test System: AMES SALMONELLA TYPHIMURIUM, Strain/Indicator: TA98, Metabolic Activation: NONE, Method: PREINCUBATION”, the mutagenic call is “active; positive”.
Regarding `CN(C)C1Cc2cccc3cccc(c23)C1`, the mutagenic call runs as follows: (Test System: AMES SALMONELLA TYPHIMURIUM, Strain/Indicator: TA97, Metabolic Activation: NONE, Method: STANDARD PLATE) “inactive; negative”; (Test System: AMES SALMONELLA TYPHIMURIUM, Strain/Indicator: TA97, Metabolic Activation: RAT, LIVER, S-9, AROCLOR 1254, Method: STANDARD PLATE) “inactive; negative”; under setting [4], “inactive; negative”; under setting [1], “active; positive”; under setting [5], “inactive; negative”; under setting [2], “inactive; negative”. Also, the mutagenic call is “inactive; negative” (Test System: AMES SALMONELLA TYPHIMURIUM, Strain/Indicator: TA102, Metabolic Activation: NONE, Method: STANDARD PLATE); “inactive; negative” (Test System: AMES SALMONELLA TYPHIMURIUM, Strain/Indicator: TA102, Metabolic Activation: RAT, LIVER, S-9, AROCLOR 1254, Method: STANDARD PLATE); “inactive; negative” under setting [6]; “inactive; negative” under setting [7].
In the case of `O=S(=O)(Nc1ccc(Cl)c(Cl)c1)c1cccc2cccnc12`, the mutagenic call is, setting by setting: under setting [4], “inactive; negative”; under setting [1], “inactive; negative”; under setting [5], “inactive; negative”; under setting [2], “inactive; negative”; under setting [6], “inactive; negative”; under setting [7], “inactive; negative”. Further, the mutagenic call reads like this: (Test System: AMES SALMONELLA TYPHIMURIUM, Strain/Indicator: TA1537, Metabolic Activation: NONE, Method: STANDARD PLATE) “inactive; negative”; under setting [3], “inactive; negative”.
Regarding `[N-]=[N+]=NC[C@@H](O)[C@H](O)[C@H](O)[C@@H](O)CO`, the mutagenic call under setting [6] was “active; positive”.

For the origin of these results see PubChem BioAssay AID1259407 (Chemical Carcinogenesis Research Information System (CCRIS), 2018).
